# Reference: PMC6618241 (Angewandte Chemie (International Ed. in English), 2019)
# System: MRSA USA300 LAC
# Assay: Antimicrobial activity assay
# Assay type: cell-based, Staphylococcus aureus
substance,measurement,setting,value
"(CPraWLVWV) (head to tail) [compound 24, 2‐Pra‐6‐Trp‐lug]",antimicrobial activity against USA300 (in words),MIC ≥100 μg mL^−1 regarded as inactive,active
same,change of antimicrobial activity relative to 1,"from MIC values, compared with 1",equal activity
